In patent US11014902B2, “MYC G-quadruplex stabilizing small molecules and their use” (The United States of America, as represented by the …, priority 2015, dated 2021):

Columns and labels:
[1] = system: c-Myc protein in H157 cells; experiment: c-Myc protein expression by Western blot, H157; format: cell-based, human; conditions: 10 μM
Method: The effect of Compound 23 on the expression of c-Myc protein in the human lung cancer cell lines H1299 and H157 was also assayed. H1299 and H157 cells were treated with 10 μM Compound 23 and c-Myc protein expression levels quantified by Western blot. In Compound 23-treated H1299 cells, c-Myc protein expression levels were approximately 55% compared to untreated control cells. In Compound 23-treated H157 cells, c-Myc protein expression levels were approximately 74% compared to untreated control cells.

[2] = Pharmacokinetic evaluation, blood plasma levels by mass spectrometry; format: in vivo; conditions: single injection 19 mg/kg, female nude mice; for Tmax / half-life: mouse
Method: The blood plasma levels of Compound 23 after a single IP or IV injection (19 mg/kg) in female nude mice were determined by mass spectrometry (see FIG. 12 and the following table).

KMS27 = experiment: Multiple myeloma cell viability; format: cell-based; conditions: KMS-27
Method: (§1) Human multiple myeloma and Burkitt's Lymphoma cell lines L363, CA46, MM-1R, KMS-11, and MM-1S were cultured and authenticated as previously described (Simmons, et al., Molecular oncology 2014, 8, 261). All plasma derived cell lines were cultured in RPMI-1640 (2 mM L-glutamine, 10% fetal bovine serum (FBS), 100 U/ml penicillin, 100 μg/ml streptomycin: Gibco) and incubated at 37° C. with 5% CO2. Viability experiments were performed in quadruplicate on 96-well plates (Costar) at designated time and dose points. MTS reagent was then directly added, incubated at 37° C. for 90 min, and absorbance of MTS formazan was read at 500 nm on an Omega 640 spectrophotometer. Percentage cell viability was normalized to the absorbance of untreated (DMSO) wells. In the case of cells harvested for their protein or RNA, pellets were flash frozen and stored at −80° C. overnight prior to use.
(§2) Additional multiple myeloma cell lines were assayed for cell viability in the presence of Compound 23, and the following IC50 values were determined.

JIM1 = experiment: Multiple myeloma cell viability; format: cell-based
Method: as §1, §2

ARD = experiment: Multiple myeloma cell viability; format: cell-based
Method: as §1, §2

AMO1 = experiment: Multiple myeloma cell viability; format: cell-based; conditions: Homo sapiens
Method: as §1, §2

KMM1 = experiment: Multiple myeloma cell viability; format: cell-based; conditions: KMM-1
Method: as §1, §2

KMS12PE = experiment: Multiple myeloma cell viability; format: cell-based; conditions: Homo sapiens, KMS-12-PE
Method: as §1, §2

[3] = system: c-MYC expression in L363 xenograft tumors; experiment: Pharmacodynamic evaluation in L363 subcutaneous xenografts (western blot); format: in vivo; conditions: single dose 19 mg/kg or 38 mg/kg IP; tumors harvested 2 and 8 hours; nude mice with L363 xenografts
Method: The capacity of Compound 23 to inhibit c-MYC expression in tumor was evaluated in nude mice bearing subcutaneous xenografts of the human multiple myeloma cell line L363. In this assay, tumors from two tumor-bearing mice were harvested 2 and 8 hours after a single dose of Compound 23 at 19 mg/kg or 38 mg/kg (administered IP).

[4] = system: peripheral blood mononucleocytes; experiment: Viability of peripheral blood mononucleocytes; format: cell-based; conditions: healthy volunteer cells; doses 25% higher than for cell treatments
Method: (§3) Since two thirds of multiple myeloma cases involve deregulated c-MYC expression (Kuehl and Bergsagel, Blood 2012, 120, 2351; Shou, et al., Proc Natl Acad Sci USA 2000, 97, 228), we elected to evaluate the cell viability effects of Compound 1 in a multiple myeloma model. […] This suppression was maintained over 72 hours, which is notable given the characteristic rapid replenishment of the protein—a phenomenon that complicates targeting c-Myc at the protein level (FIG. 4C). This effect was maintained across a genetically diverse set of 4 multiple myeloma lines. We observed decreases in c-MYC translation in all lines tested, and this effect also correlated with decreases in viability (FIG. 4D).

RB1, BCL2 G4s = experiment: Biophysical measurements of compound affinity, RB1 and BCL2 G4s; format: binding
myeloma cells = experiment: Senescence in myeloma cells; format: cell-based, human; conditions: 10 μM, after 72 hours
KRAS, VEGF G4s = experiment: Biophysical measurements of compound affinity, KRAS and VEGF G4s; format: binding
[5] = system: CA46 Burkitt's Lymphoma line; experiment: CA46 cell viability; format: cell-based, human
Method: as §3
as §1, with “Viability experiments were performed in quadruplicate on 96-well plates (Costar) at designated time and dose points.” left out, “In the case of cells harvested for their protein or RNA, pellets were flash frozen and stored at −80° C. overnight prior to use.” left out

| SMILES | c-Myc protein expression levels compared to untreated control cells [1] | Kel ([2]; IP) [h⁻¹] | Kel ([2]; IV) [h⁻¹] | Tmax ([2]; IP) [h] | half-life ([2]; IP) [h] | Tmax ([2]; IV) [h] | half-life ([2]; IV) [h] | IC50 (KMS27) [µM] | IC50 (JIM1) [µM] | IC50 (ARD) [µM] | IC50 (AMO1) [µM] | IC50 (KMM1) [µM] | IC50 (KMS12PE) [µM] | c-MYC expression levels in tumors compared to vehicle control tumors [3] | viability [4] | G4 binding relative to MYC (RB1, BCL2 G4s) | senescent state (myeloma cells) | G4 binding (KRAS, VEGF G4s) | cell viability [5] |
| --- | --- | --- | --- | --- | --- | --- | --- | --- | --- | --- | --- | --- | --- | --- | --- | --- | --- | --- | --- |
| Cc1oc2ccc(O)c(CN3CCCCCC3)c2c1C(=O)Nc1ccc(C(F)(F)F)cc1 [Compound 23] | approximately 74% | 0.277 | 0.277 | 1 | 6.5 | 0.38 | 2.25 | 5.06 | 6.35 | 5.75 | 5.92 | 4.13 | 5.33 | decreased c-MYC expression levels |  |  |  |  |  |
| Cc1ccc(NC(=O)c2c(C)oc3ccc(O)c(CN4CCCCCC4)c23)cc1 [Compound 1] |  |  |  |  |  |  |  |  |  |  |  |  |  |  | did not alter viability | weaker binding | triggered a senescent state | complete lack of G4 binding | negligible changes |
